Results reported in US20250313563A1, “GLYCOGEN SYNTHASE KINASE 3 INHIBITORS AND USES THEREOF” (The Broad Institute, Inc., priority 2022, published 2025).
Like-named read-outs stand apart in the source and are kept apart here.

Key:
[1] = target: GSK3b (GST-full length GSK3b) (Homo sapiens (Human), UniProt P49841); test: GSK3b TR-FRET kinase assay; format: biochemical
Summary of the method: (§1)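 In this time-resolved FRET format, kinase reactions contained 200 nM biotinylated, S645-phosphorylated glycogen synthase 631-650 peptide and either isoform-specific ATP (2 μM GSK3b, 4 μM GSK3α) or 1 mM ATP. They were quenched with EDTA after 100 min at ambient temperature. Inhibition curves gave IC50 values.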

[2] = target: GSK3α (GST-full length GSK3α) (Homo sapiens (Human), UniProt P49840); test: GSK3α TR-FRET kinase assay; format: biochemical
Summary of the method: as §1

[3] = 1 nM GSK3b, 2 μM ATP, 30 minute preincubation, geometric mean, read-out: GSK3-B TR-FRET BIOCHEMICAL (TR-FRET), GMean, IC50
[4] = read-out: GSK3-B (TR-FRET 1 mM ATP), GMean, IC50, 1 mM ATP, geometric mean
[5] = 1 nM GSK3α, 4 μM ATP, 30 minute preincubation, geometric mean, read-out: GSK3-A TR-FRET BIOCHEMICAL (TR-FRET), GMean, IC50
[6] = read-out: GSK3-A (TR-FRET 1 mM ATP), GMean, IC50, 1 mM ATP, geometric mean
[7] = 1 nM GSK3b, 2 μM ATP, 30 minute preincubation, Table 16, read-out: GSK3-B TR-FRET BIOCHEMICAL (TR-FRET), IC50
[8] = 1 nM GSK3α, 4 μM ATP, 30 minute preincubation, Table 16, read-out: GSK3-A TR-FRET BIOCHEMICAL (TR-FRET), IC50
[9] = 1 nM GSK3b, 2 μM ATP, 30 minute preincubation, Table 16, read-out: GSK3-B TR-FRET BIOCHEMICAL (TR-FRET)
[10] = 1 nM GSK3α, 4 μM ATP, 30 minute preincubation, Table 16, read-out: GSK3-A TR-FRET BIOCHEMICAL (TR-FRET)

Chain of GSK3α (GST-full length GSK3α) (P49840 whole entry): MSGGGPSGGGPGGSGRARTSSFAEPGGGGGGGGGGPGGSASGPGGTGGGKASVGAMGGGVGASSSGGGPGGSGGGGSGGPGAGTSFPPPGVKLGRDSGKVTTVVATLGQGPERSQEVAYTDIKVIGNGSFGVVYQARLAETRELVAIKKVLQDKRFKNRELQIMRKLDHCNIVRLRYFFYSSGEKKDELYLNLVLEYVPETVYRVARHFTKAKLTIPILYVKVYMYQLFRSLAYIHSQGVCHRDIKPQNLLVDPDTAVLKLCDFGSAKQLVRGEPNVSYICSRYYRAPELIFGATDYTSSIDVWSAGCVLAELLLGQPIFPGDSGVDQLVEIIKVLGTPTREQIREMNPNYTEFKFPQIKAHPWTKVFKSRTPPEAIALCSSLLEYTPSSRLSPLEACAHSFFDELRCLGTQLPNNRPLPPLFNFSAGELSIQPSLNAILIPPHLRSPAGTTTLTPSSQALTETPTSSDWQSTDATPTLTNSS
Chain of GSK3b (GST-full length GSK3b) (P49841 whole entry, canonical isoform): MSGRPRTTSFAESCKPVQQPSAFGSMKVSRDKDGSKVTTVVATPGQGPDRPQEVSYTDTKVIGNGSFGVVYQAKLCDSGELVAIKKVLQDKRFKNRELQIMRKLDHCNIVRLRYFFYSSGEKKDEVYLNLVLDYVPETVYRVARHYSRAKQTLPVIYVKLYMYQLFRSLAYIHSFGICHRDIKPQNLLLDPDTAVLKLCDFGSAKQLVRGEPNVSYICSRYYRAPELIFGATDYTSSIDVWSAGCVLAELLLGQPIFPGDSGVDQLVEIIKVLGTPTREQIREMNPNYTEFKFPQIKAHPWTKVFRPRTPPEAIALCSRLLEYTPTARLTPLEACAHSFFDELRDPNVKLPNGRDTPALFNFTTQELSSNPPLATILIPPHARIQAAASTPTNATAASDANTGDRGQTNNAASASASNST

An IC50 [1, 3] of no more than 0.1 µM, an IC50 [1, 4] of 0.1 to 1 µM and an IC50 [2, 5] of no more than 0.1 µM were found for `CCC1(c2cccc(-c3cc(C)nnc3C)c2)C2=C(CC(C)(C)NC2=O)Nc2n[nH]c(C(F)(F)F)c21` (stereo not drawn) [Compound 949174] in this work. It also gave an IC50 [2, 6] of 0.1 to 1 µM.
An IC50 [1, 3] of no more than 0.1 µM, an IC50 [1, 4] of no more than 0.1 µM and an IC50 [2, 5] of no more than 0.1 µM were found for `CC[C@]1(c2cccc(S(=O)(=O)CC3CC3)c2)C2=C(CC(C)(C)NC2=O)Nc2n[nH]c(C(F)(F)F)c21` [Compound 949175] in this work. It also gave an IC50 [2, 6] of no more than 0.1 µM.
An IC50 [1, 3] of no more than 0.1 µM, an IC50 [1, 4] of 1 to 5 µM and an IC50 [2, 5] of no more than 0.1 µM were found for `CC[C@]1(c2cccc(S(=O)(=O)C3CC3)c2)C2=C(CC(C)(C)N(C)C2=O)Nc2n[nH]cc21` [Compound 949177] in this work. It also gave an IC50 [2, 6] of 0.1 to 1 µM.
An IC50 [1, 3] of 1 to 5 µM and an IC50 [2, 5] of 0.1 to 1 µM were found for `CC[C@]1(c2cccc(N3CCCCC3)c2)C2=C(CC(C)(C)NC2=O)Nc2n[nH]c(C(F)(F)F)c21` [Compound 949178] in this work.
An IC50 [1, 3] greater than 5 µM and an IC50 [2, 5] of 0.1 to 1 µM were found for `CC[C@]1(c2cccc(N(C)c3ncccn3)c2)C2=C(CC(C)(C)NC2=O)Nc2n[nH]cc21` [Compound 949179] in this work.
An IC50 [1, 4] of 0.1 to 1 µM and an IC50 [2, 6] of no more than 0.1 µM were found for `CCC1(c2cccc(N(C)c3ncccn3)c2)C2=C(CC(C)(C)NC2=O)Nc2n[nH]c(C(F)(F)F)c21` (stereo not drawn) [Compound 949181] in this work.
An IC50 [1, 3] of no more than 0.1 µM and an IC50 [2, 5] of no more than 0.1 µM were found for `CCC1(c2cccc(N(C)c3ncccn3)c2)C2=C(CC(C)(C)NC2=O)Nc2n[nH]c(C)c21` (stereo not drawn) [Compound 949182] in this work.
An IC50 [1, 3] of no more than 0.1 µM, an IC50 [1, 4] of 0.1 to 1 µM and an IC50 [2, 5] of no more than 0.1 µM were found for `CCC1(c2cccc(N3CCCCC3)c2)C2=C(CC(C)(C)NC2=O)Nc2n[nH]c(C(F)(F)F)c21` (stereo not drawn) [Compound 949183] in this work. It also gave an IC50 [2, 6] of no more than 0.1 µM.
An IC50 [1, 7] greater than 5 µM and an IC50 [2, 8] of 1 to 5 µM were found for `CC[C@@]1(c2cccc(S(=O)(=O)C3CC3)c2)C2=C(CC(C)(C)N(C)C2=O)Nc2n[nH]cc21` [Compound 949184] in this work.
An IC50 [1, 7] of no more than 0.1 µM, an IC50 [1, 4] of 1 to 5 µM and an IC50 [2, 8] of no more than 0.1 µM were found for `CC[C@@]1(c2cccc(-c3cn(C)nc3C)c2)C2=C(CC(C)(C)NC2=O)Nc2n[nH]c(F)c21` [Compound 949185] in this work. It also gave an IC50 [2, 6] of no more than 0.1 µM.
An IC50 [1, 7] of 0.1 to 1 µM and an IC50 [2, 8] of 0.1 to 1 µM were found for `CC[C@@]1(c2cccc(S(=O)(=O)CC3CC3)c2)C2=C(CC(C)(C)NC2=O)Nc2n[nH]c(C(F)(F)F)c21` [Compound 949186] in this work.
An IC50 [1, 7] greater than 5 µM and an IC50 [2, 8] greater than 5 µM were found for `CC[C@@]1(c2cccc(-c3cnn4ccncc34)c2)C2=C(CC(C)(C)NC2=O)Nc2n[nH]cc21` [Compound 949263] in this work.
An IC50 [1, 7] greater than 5 µM and an IC50 [2, 8] greater than 5 µM were found for `CC[C@@]1(c2cccc(-c3cnn(-c4ccccn4)c3)c2)C2=C(CC(C)(C)NC2=O)Nc2n[nH]cc21` [Compound 949264] in this work.
An IC50 [1, 7] of 0.1 to 1 µM and an IC50 [2, 8] of no more than 0.1 µM were found for `CCC1(c2cccc(-c3cn(C)nc3C(F)(F)F)c2)C2=C(CC(C)(C)NC2=O)Nc2n[nH]cc21` (stereo not drawn) [Compound 949266] in this work.
An IC50 [1, 9] greater than 5 µM and an IC50 [2, 10] of 1 to 5 µM were found for `CCC1(c2cccc(C(F)(F)C(F)(F)F)c2)C2=C(CC(C)(C)CC2=O)Nc2n[nH]cc21` (stereo not drawn) [Compound 949268] in this work.
An IC50 [1, 7] of 0.1 to 1 µM and an IC50 [2, 8] of no more than 0.1 µM were found for `CCC1(c2cccc(C(F)(F)F)c2)C2=C(CCN(c3cnn(C)c3)C2=O)Nc2n[nH]cc21` (stereo not drawn) [Compound 949270] in this work.
An IC50 [1, 7] greater than 5 µM and an IC50 [2, 8] of 0.1 to 1 µM were found for `CC[C@]1(c2cccc(C(F)(F)F)c2)C2=C(CCN(c3cnn(C)c3)C2=O)Nc2n[nH]cc21` [Compound 949271] in this work.
An IC50 [1, 7] of 0.1 to 1 µM, an IC50 [1, 4] greater than 5 µM and an IC50 [2, 8] of no more than 0.1 µM were found for `CCC1(c2cccc(C(F)(F)F)c2)C2=C(CCN(c3ccccn3)C2=O)Nc2n[nH]cc21` (stereo not drawn) [Compound 949310] in this work. It also gave an IC50 [2, 6] of 0.1 to 1 µM.
An IC50 [1, 9] of 0.1 to 1 µM and an IC50 [2, 10] of 0.1 to 1 µM were found for `Cc1cnccc1[C@H]1CC[C@@]2(CC1)C1=C(CC(C)(C)CC1=O)Nc1n[nH]cc12` [Compound 949318] in this work.
An IC50 [1, 9] of no more than 0.1 µM and an IC50 [2, 10] of no more than 0.1 µM were found for `Cc1cnccc1[C@H]1CC[C@]2(CC1)C1=C(CC(C)(C)CC1=O)Nc1n[nH]cc12` [Compound 949319] in this work.
An IC50 [1, 9] of 1 to 5 µM and an IC50 [2, 10] of 0.1 to 1 µM were found for `CC1(C)CC(=O)C2=C(C1)Nc1n[nH]cc1[C@]21CC[C@@H](c2ccncc2)CC1` [Compound 949320] in this work.
An IC50 [1, 9] of no more than 0.1 µM and an IC50 [2, 10] of no more than 0.1 µM were found for `CC1(C)CC(=O)C2=C(C1)Nc1n[nH]cc1[C@]21CC[C@H](c2ccncc2)CC1` [Compound 949321] in this work.
An IC50 [1, 9] of 1 to 5 µM and an IC50 [2, 10] of 0.1 to 1 µM were found for `Cn1cc([C@H]2CC[C@@]3(CC2)C2=C(CC(C)(C)CC2=O)Nc2n[nH]cc23)cn1` [Compound 949322] in this work.
An IC50 [1, 7] greater than 5 µM and an IC50 [2, 8] of 1 to 5 µM were found for `Cn1cc([C@H]2CC[C@]3(CC2)C2=C(CC(C)(C)CC2=O)Nc2n[nH]cc23)cn1` [Compound 949323] in this work.
